Source: patent publication US9045493B2, “Furo[3,2-b]- and thieno[3,2-b]pyridin derivatives” (Merck Patent GmbH, priority 2012, dated 2015)

Key:
IKKε = target: T1, IKKε (Homo sapiens, UniProt Q14164); assay: IKKε kinase assay (384-well Flashplate); type: biochemical; settings: 10 μM ATP, 2 hours at 30° C.; read-out: IKKε enzyme assay IC50
T1 sequence (Q14164 1-716): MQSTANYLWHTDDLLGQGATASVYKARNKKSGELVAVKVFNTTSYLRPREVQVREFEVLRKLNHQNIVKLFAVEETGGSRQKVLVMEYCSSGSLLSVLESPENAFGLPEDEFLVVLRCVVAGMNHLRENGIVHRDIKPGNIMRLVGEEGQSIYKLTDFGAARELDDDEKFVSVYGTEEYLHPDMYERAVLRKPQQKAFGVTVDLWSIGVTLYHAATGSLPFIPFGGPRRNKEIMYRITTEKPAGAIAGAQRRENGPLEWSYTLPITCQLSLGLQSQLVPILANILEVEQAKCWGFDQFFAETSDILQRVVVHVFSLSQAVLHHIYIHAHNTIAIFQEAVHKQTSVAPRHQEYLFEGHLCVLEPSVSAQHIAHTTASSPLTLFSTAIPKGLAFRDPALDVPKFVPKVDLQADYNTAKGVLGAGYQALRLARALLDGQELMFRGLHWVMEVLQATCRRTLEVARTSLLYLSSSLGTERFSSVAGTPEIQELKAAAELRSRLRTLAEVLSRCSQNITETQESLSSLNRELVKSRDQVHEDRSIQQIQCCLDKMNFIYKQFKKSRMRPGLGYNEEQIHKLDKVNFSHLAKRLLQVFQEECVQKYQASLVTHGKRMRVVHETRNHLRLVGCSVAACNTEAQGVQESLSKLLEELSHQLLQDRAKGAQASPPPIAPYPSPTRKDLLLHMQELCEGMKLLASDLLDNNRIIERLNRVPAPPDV
Method: The kinase assay is performed either as 384-well Flashplate assay (for e.g. Topcount measurement).
1 nM IKKε, 800 nM biotinylated IκBα(19-42) peptide (Biotin-C6-C6-[…]) and 10 μM ATP (spiked with 0.3 μCi ^33P-ATP/well) are incubated in a total volume of 50 μl (10 mM MOPS, 10 mM Mg-acetat, 0.1 mM EGTA, 1 mM Dithiothreitol, 0.02% Brij35, 0.1% BSA, 0.1% BioStab, pH 7.5) with or without test compound for 2 hours at 30° C. The reaction is stopped with 25 μl 200 mM EDTA. After 30 Min at room temperature the liquid is removed and each well washed thrice with 100 μl 0.9% sodium chloride solution. […] Radioactivity is measured with Topcount (PerkinElmer). Results (e.g. IC50-values) are calculated with program tools provided by the IT-department (e.g. AssayExplorer, Symyx).

[1] = target: T2, TANK binding kinase (TBK1) (Homo sapiens, UniProt Q9UHD2); assay: TBK1 enzyme assay (384-well Flashplate kinase assay); type: biochemical; settings: 10 μM ATP, 120 Min at 30° C.
T2 sequence (Q9UHD2 1-729): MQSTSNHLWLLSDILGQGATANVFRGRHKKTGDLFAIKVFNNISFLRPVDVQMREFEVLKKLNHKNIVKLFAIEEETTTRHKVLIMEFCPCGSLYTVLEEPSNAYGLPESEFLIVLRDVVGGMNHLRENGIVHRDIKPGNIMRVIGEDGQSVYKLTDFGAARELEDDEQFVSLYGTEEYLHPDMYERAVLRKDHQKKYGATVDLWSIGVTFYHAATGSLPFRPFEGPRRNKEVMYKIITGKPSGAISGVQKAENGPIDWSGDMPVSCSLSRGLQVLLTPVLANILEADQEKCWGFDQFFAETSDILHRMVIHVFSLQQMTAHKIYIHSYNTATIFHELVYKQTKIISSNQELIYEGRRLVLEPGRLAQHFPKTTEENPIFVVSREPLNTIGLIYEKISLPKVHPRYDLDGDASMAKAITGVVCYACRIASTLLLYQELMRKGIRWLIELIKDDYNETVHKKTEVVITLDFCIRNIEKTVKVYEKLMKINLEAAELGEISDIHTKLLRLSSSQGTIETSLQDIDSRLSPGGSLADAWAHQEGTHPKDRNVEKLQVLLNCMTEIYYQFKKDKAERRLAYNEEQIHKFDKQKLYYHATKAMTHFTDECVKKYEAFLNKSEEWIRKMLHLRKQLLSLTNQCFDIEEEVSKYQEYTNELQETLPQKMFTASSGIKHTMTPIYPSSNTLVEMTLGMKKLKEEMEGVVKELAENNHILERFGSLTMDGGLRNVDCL
Method: The kinase assay is performed as 384-well Flashplate assay (for e.g. Topcount measurement.
0.6 nM TANK binding kinase (TBK1), 800 nM biotinylated MELK-derived peptide (Biotin-Ah-Ah-[…]) and 10 μM ATP (spiked with 0.25 μCi ^33P-ATP/well) are incubated in a total volume of 50 μl (10 mM MOPS, 10 mM Mg-acetat, 0.1 mM EGTA, 1 mM DTT, 0.02% Brij35, 0.1% BSA, pH 7.5) with or without test compound for 120 Min at 30° C. The reaction is stopped with 25 μl 200 mM EDTA. After 30 Min at room temperature the liquid is removed and each well washed thrice with 100 μl 0.9% sodium chloride solution. Nonspecific reaction is determined in presence of 100 nM Staurosporine. Radioactivity is measured in a Topcount (PerkinElmer). Results (e.g. IC50-values) are calculated with program tools provided by the IT-department (e.g. AssayExplorer, Symyx).

IC50 (IKKε)	IC50 [1]	SMILES
3000 to 50000 nM	3000 to 50000 nM	N#Cc1cc(-c2ccnc3cc(-c4ccc(N5CCOCC5)cc4)oc23)ccc1OC1CCOCC1 [Compound A1, 5-[2-(4-Morpholin-4-yl-phenyl)-furo[3,2-b]pyridin-7-yl]-2-(tetrahydro-pyran-4-yloxy)-benzonitrile]
< 300 nM	< 300 nM	N#Cc1cc(-c2ccnc3cc(-c4cccc(N5CCOCC5)c4)oc23)ccc1OC1CCOCC1 [Compound A2, 5-[2-(3-Morpholin-4-yl-phenyl)-furo[3,2-b]pyridin-7-yl]-2-(tetrahydro-pyran-4-yloxy)-benzonitrile]
< 300 nM	< 300 nM	CCN(CCOC)C(=O)c1ccc(-c2cc3nccc(-c4ccc(OC5CCOCC5)c(C#N)c4)c3o2)cc1 [Compound A3, 4-{7-[3-cyano-4-(tetrahydro-pyran-4-yloxy)-phenyl]-furo[3,2-b]pyridin-2-yl}-N-ethyl-N-(2-methoxy-ethyl)-benzamide]
300 to 3000 nM	300 to 3000 nM	CCOC(=O)c1ccc(-c2cc3nccc(-c4ccc(OC5CCOCC5)c(C#N)c4)c3o2)cc1 [Compound A4, 4-{7-[3-cyano-4-(tetrahydro-pyran-4-yloxy)-phenyl]-furo[3,2-b]pyridin-2-yl}-benzoic acid ethyl ester]
< 300 nM	< 300 nM	COc1ccccc1-c1cc2nccc(-c3ccc(OC4CCOCC4)c(C#N)c3)c2o1 [Compound A5, 5-[2-(2-methoxy-phenyl)-furo[3,2-b]pyridin-7-yl]-2-(tetrahydro-pyran-4-yloxy)-benzonitrile]
300 to 3000 nM	300 to 3000 nM	COc1cccc(-c2cc3nccc(-c4ccc(OC5CCOCC5)c(C#N)c4)c3o2)c1 [Compound A6, 5-[2-(3-methoxy-phenyl)-furo[3,2-b]pyridin-7-yl]-2-(tetrahydro-pyran-4-yloxy)-benzonitrile]
300 to 3000 nM	300 to 3000 nM	COc1ccc(-c2cc3nccc(-c4ccc(OC5CCOCC5)c(C#N)c4)c3o2)cc1 [Compound A7, 5-[2-(4-methoxy-phenyl)-furo[3,2-b]pyridin-7-yl]-2-(tetrahydro-pyran-4-yloxy)-benzonitrile]
300 to 3000 nM	3000 to 50000 nM	COCCn1cc(-c2cc3nccc(-c4ccc(OC5CCOCC5)c(C#N)c4)c3o2)cn1 [Compound A8, 5-{2-[1-(2-methoxy-ethyl)-1H-pyrazol-4-yl]-furo[3,2-b]pyridin-7-yl}-2-(tetrahydro-pyran-4-yloxy)-benzonitrile]
< 300 nM	< 300 nM	CN1CCN(c2cccc(-c3cc4nccc(-c5ccc(OC6CCOCC6)c(C#N)c5)c4o3)c2)CC1 [Compound A9, 5-{2-[3-(4-methyl-piperazin-1-yl)-phenyl]-furo[3,2-b]pyridin-7-yl}-2-(tetrahydro-pyran-4-yloxy)-benzonitrile]
< 300 nM	< 300 nM	CN1CCN(c2ccc(-c3cc4nccc(-c5ccc(OC6CCOCC6)c(C#N)c5)c4o3)cc2)CC1 [Compound A10, 5-{2-[4-(4-methyl-piperazin-1-yl)-phenyl]-furo[3,2-b]pyridin-7-yl}-2-(tetrahydro-pyran-4-yloxy)-benzonitrile]
300 to 3000 nM	300 to 3000 nM	N#Cc1cc(-c2ccnc3cc(-c4cccc5[nH]cnc45)oc23)ccc1OC1CCOCC1 [Compound A13, 5-[2-(1H-benzoimidazol-4-yl)-furo[3,2-b]pyridin-7-yl]-2-(tetrahydro-pyran-4-yloxy)-benzonitrile]
3000 to 50000 nM	3000 to 50000 nM	N#Cc1cc(-c2ccnc3cc(-c4ccc5[nH]c(=O)[nH]c5c4)oc23)ccc1OC1CCOCC1 [Compound A14, 5-[2-(2-oxo-2,3-dihydro-1H-benzoimidazol-5-yl)-furo[3,2-b]pyridin-7-yl]-2-(tetrahydro-pyran-4-yloxy)-benzonitrile]
< 300 nM	300 to 3000 nM	CNCCNC(=O)c1ccc(-c2cc3nccc(-c4ccc(OC5CCOCC5)c(C#N)c4)c3o2)cc1 [Compound A15, 4-{7-[3-cyano-4-(tetrahydro-pyran-4-yloxy)-phenyl]-furo[3,2-b]pyridin-2-yl}-N-(2-methylamino-ethyl)-benzamide]
